Laboratory results reported in US20110086758A1, “Fungicidal compositions comprising 3'-bromo-2,3,4,6'-tetramethoxy-2',6-dimethylbenzophenone” (BASF SE, priority 2008, published 2011).

System: Sphaerotheca fuliginea
Assay: Field testing on melons, natural infection with Sphaerotheca fuliginea
Type: in vivo
Settings: efficacy in % of untreated control, 3 applications
Description: The visually determined percentages of infected leaf areas were converted into efficacies in % of the untreated control: The efficacy (E) is calculated as follows using Abbot's formula: W=(1−α/β)·100 • α corresponds to the fungicidal infection of the treated plants in % and • β corresponds to the fungicidal infection of the untreated (control) plants in % At an efficacy of 0, the infection level of the treated plants corresponds to that of the untreated control plants; at an efficacy of 100, the treated plants are not infected. The expected efficacies of active compound mixtures were determined using Colby's formula (S. R. Colby, “Calculating synergistic and antagonistic responses of herbicide combinations”, Weeds 15, pp. 20-22 (1967) and compared with the observed efficacies. E=x+y−x·y/100 • expected efficacy, expressed in % of the untreated control, when using the mixture of the active compounds A and B at the concentrations a and b • x efficacy, expressed in % of the untreated control, when using the active compound A at the concentration a • y efficacy, expressed in % of the untreated control, when using the active compound B at the concentration b The trial was carried out under standardized field conditions. Melons were grown in the field. After 36 days, an application with the recited products was carried out, which was repeated two times after 7 days and after 14 days. No further active components for pathogen control were applied. The infection with the pathogen Sphaerotheca fuliginea ensued naturally. Infestation in % of leaf area affected was scored 35 days after the first application. The visually determined values of % of leaf area infected was initially averaged and then converted into efficacies as % of the untreated control. An efficacy of 0 is the same infestation as the untreated control, an efficacy of 100% is 0% infestation. The expected efficacies of active compound combinations were determined as described above using Colby's formula and compared with the observed efficacies. The active compounds were used as commercially available compositions. […]

Compound	Observed effect 35 days after first treatment (dose 30 g ai/ha, scored 35 days after first application) [%]	Observed effect 35 days after first treatment (dose 50 g ai/ha, scored 35 days after first application) [%]	Observed effect 35 days after first treatment (dose 100 g ai/ha, leaf area infested scored 35 days after first application) [%]
CC1COC(Cn2cncn2)(c2ccc(Oc3ccc(Cl)cc3)cc2Cl)O1 (stereo not drawn) [Difenoconazole, 1-{2-[2-chloro-4-(4-chlorophenoxy)phenyl]-4-methyl-[1,3]dioxolan-2-ylmethyl}-1H-[1,2,4]triazole]	19		
COc1cc(C)c(C(=O)c2c(OC)ccc(Br)c2C)c(OC)c1OC [Metrafenone, 3′-bromo-2,3,4,6′-tetramethoxy-2′,6-dimethylbenzophenone]		46	70
